Measured values: patent US9586986B2, “Substituted 7-deazapurine ribonucleosides for therapeutic uses” (Institute of Organic Chemistry and Biochemistry ASCR, v.v.i., priority 2014, dated 2017)

Tests used:
Format in all cases: cell-based
A549 = experiment: Cytostatic/cytotoxic MTT assay, A549; settings: Homo sapiens, A549; 72 h incubation; read-out: MTT, IC50 A549
Summary of the method: (§1)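 Cells were plated at 25,000-30,000/well, given 24 h pre-incubation, then treated with four-fold compound dilutions in duplicate for 72 h at 37° C., 5% CO2. MTT was added for 1-4 h and formazan was dissolved overnight in 10% SDS (pH 5.5) before reading OD at 540 nm. IC50 is the concentration giving 50% growth inhibition.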

[1] = tested on: HCV subtype 2A replicon in Huh-7 cells; experiment: HCV sub-genomic reporter replicon assay, subtype 2A; settings: Hepatitis C virus; Huh-7 cells, HCV subtype 2A replicon; read-out: Replicon 2A EC50
Procedure: (§2) Compounds were also tested in Huh-7 cells harboring sub-genomic reporter replicons derived from HCV subtypes 1B and 2A (ref.: Stuyver, L. J.; Whitaker, T.; McBrayer, T. R.; Hernandez-Santiago, B. I.; Lostia, S.; Tharnish, P. M.; Ramesh, M.; Chu, C. K.; Jordan, R.; Shi, J. X.; Rachakonda, S.; Watanabe, K. A.; Otto, M. J.; Schinazi, R. F. Antimicrob. Agents Chemother. 2003, 47, 244-254).

[2] = tested on: HCV subtype 1B replicon in Huh-7 cells; experiment: HCV sub-genomic reporter replicon assay, subtype 1B; settings: Hepatitis C virus; Huh-7 cells, HCV subtype 1B replicon; read-out: Replicon 1B EC50
Procedure: as §2

[3] = tested on: Huh-7 cells harboring replicon 1B; experiment: Cytotoxicity in replicon 1B cells; settings: HCV subtype 1B replicon
Procedure: as §2

[4] = tested on: Huh-7 cells harboring replicon 2A; experiment: Cytotoxicity in replicon 2A cells; settings: HCV subtype 2A replicon
Procedure: as §2

CCRF-CEM = experiment: Cytostatic/cytotoxic MTT assay, CCRF-CEM; settings: Homo sapiens, 72 h incubation, read-out: MTT, IC50 CCRF-CEM
Summary of the method: as §1

MRC-5 = experiment: Cytostatic/cytotoxic MTT assay, MRC-5 fibroblasts; settings: Homo sapiens, MRC5; non-malignant fibroblasts, 72 h; read-out: MTT, IC50 MRC-5
Summary of the method: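 Following 24 h stabilisation, wells received compound as four-fold serial dilutions (duplicates) and were incubated 72 h. MTT conversion (1-4 h) was quantified at 540 nm; the concentration giving 50% growth inhibition was reported.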

Cc1ncnc2c1c(-c1ccsc1)cn2[C@@H]1O[C@H](CO)[C@@H](O)[C@H]1O [Compound 5d, 4-Methyl-7-(β-D-ribofuranosyl)-5-(thiophen-3-yl)-7H-pyrrolo[2,3-d]pyrimidine]
IC50 (A549): > 20 µM | EC50 [1]: > 44 µM | EC50 [2]: 4.47 µM | CC50 [3]: > 44 µM | CC50 [4]: > 44 µM | IC50 (CCRF-CEM): 11.2 µM | IC50 (MRC-5): > 100 µM

COc1ncnc2c1c(-c1ccsc1)cn2[C@@H]1O[C@H](CO)[C@@H](O)[C@H]1O [Compound 1d, 4-Methoxy-7-(β-D-ribofuranosyl)-5-(thiophen-3-yl)-7H-pyrrolo[2,3-d]pyrimidine]
IC50 (A549): 5.17 µM | EC50 [1]: > 44 µM | EC50 [2]: 0.55 µM | CC50 [3]: > 44 µM | CC50 [4]: > 44 µM | IC50 (CCRF-CEM): 2.57 µM | IC50 (MRC-5): 75.3 µM

CNc1ncnc2c1c(-c1ccccc1)cn2[C@@H]1O[C@H](CO)[C@@H](O)[C@H]1O [Compound 3e, 4-Methylamino-5-phenyl-7-(β-D-ribofuranosyl)-7H-pyrrolo[2,3-d]pyrimidine]
IC50 (A549): > 20 µM | EC50 [1]: > 44 µM | EC50 [2]: > 44 µM | CC50 [3]: > 44 µM | CC50 [4]: > 44 µM | IC50 (CCRF-CEM): > 20 µM | IC50 (MRC-5): > 100 µM

COc1ncnc2c1c(-c1ccccc1)cn2[C@@H]1O[C@H](CO)[C@@H](O)[C@H]1O [Compound 1e, 4-Methoxy-5-phenyl-7-(β-D-ribofuranosyl)-7H-pyrrolo[2,3-d]pyrimidine]
IC50 (A549): > 20 µM | EC50 [1]: > 44 µM | EC50 [2]: 21 µM | CC50 [3]: > 44 µM | CC50 [4]: > 44 µM | IC50 (CCRF-CEM): > 20 µM | IC50 (MRC-5): > 100 µM

C#Cc1cn([C@@H]2O[C@H](CO)[C@@H](O)[C@H]2O)c2ncnc(SC)c12 [Compound 2g, 5-Ethynyl-4-methylsulfanyl-7-(β-D-ribofuranosyl)-7H-pyrrolo[2,3-d]pyrimidine]
IC50 (A549): 0.14 µM | EC50 [1]: > 44 µM | EC50 [2]: 0.21 µM | CC50 [3]: > 44 µM | CC50 [4]: > 44 µM | IC50 (CCRF-CEM): > 20 µM | IC50 (MRC-5): > 100 µM

CSc1ncnc2c1c(I)cn2[C@@H]1O[C@H](CO)[C@@H](O)[C@H]1O [Compound 2h, 5-Iodo-4-methylsulfanyl-7-(β-D-ribofuranosyl)-7H-pyrrolo[2,3-d]pyrimidine]
IC50 (A549): > 20 µM | EC50 [1]: > 44 µM | EC50 [2]: 19.2 µM | CC50 [3]: > 44 µM | CC50 [4]: > 44 µM | IC50 (CCRF-CEM): > 20 µM | IC50 (MRC-5): > 100 µM

CN(C)c1ncnc2c1c(-c1cc3ccccc3o1)cn2[C@@H]1O[C@H](CO)[C@@H](O)[C@H]1O [Compound 4f, 5-(Benzofuran-2-yl)-4-dimethylamino-7-(β-D-ribofuranosyl)-7H-pyrrolo[2,3-d]pyrimidine]
IC50 (A549): > 20 µM | EC50 [1]: > 44 µM | EC50 [2]: 19.2 µM | CC50 [3]: > 44 µM | CC50 [4]: > 44 µM | IC50 (CCRF-CEM): > 20 µM | IC50 (MRC-5): > 100 µM

CN(C)c1ncnc2c1c(-c1ccco1)cn2[C@@H]1O[C@H](CO)[C@@H](O)[C@H]1O [Compound 4a, 4-Dimethylamino-5-(furan-2-yl)-7-(β-D-ribofuranosyl)-7H-pyrrolo[2,3-d]pyrimidine]
IC50 (A549): 4.6 µM | EC50 [1]: 1.35 µM | EC50 [2]: 1.49 µM | CC50 [3]: > 44 µM | CC50 [4]: > 44 µM | IC50 (CCRF-CEM): 2.91 µM | IC50 (MRC-5): > 100 µM

Cc1ncnc2c1c(-c1ccccc1)cn2[C@@H]1O[C@H](CO)[C@@H](O)[C@H]1O [Compound 5e, 4-Methyl-5-phenyl-7-(β-D-ribofuranosyl)-7H-pyrrolo[2,3-d]pyrimidine]
IC50 (A549): > 20 µM | EC50 [1]: > 44 µM | EC50 [2]: 34.8 µM | CC50 [3]: > 44 µM | CC50 [4]: > 44 µM | IC50 (CCRF-CEM): > 20 µM | IC50 (MRC-5): > 100 µM

C#Cc1cn([C@@H]2O[C@H](CO)[C@@H](O)[C@H]2O)c2ncnc(N(C)C)c12 [Compound 4g, 4-Dimethylamino-5-ethynyl-7-(β-D-ribofuranosyl)-7H-pyrrolo[2,3-d]pyrimidine]
IC50 (A549): 0.39 µM | EC50 [1]: 0.1 µM | EC50 [2]: 0.07 µM | CC50 [3]: > 44 µM | CC50 [4]: > 44 µM | IC50 (CCRF-CEM): 0.09 µM | IC50 (MRC-5): 36.1 µM
